Experimental data from patent US11597724B2, “Herbicidally active 3-phenylisoxazoline-5-carboxamides of tetrahydro and dihydrofuran carboxylic acids and esters” (Bayer Aktiengesellschaft, priority 2017, dated 2023).

What was measured:
Assay type in all cases: in vivo
Setaria viridis = assay: Post-emergence herbicidal activity against SETVI; settings: Setaria viridis, 504 h, dosage 320 g/ha, rated about 3 weeks after treatment
Description: (§1) POLCO: Polygonum convolvulus SETVI: Setaria viridis 2. Post-Emergence Herbicidal Action and Crop Plant Compatibility Seeds of monocotyledonous and dicotyledonous weeds and crop plants are placed in sandy loam in plastic or wood-fiber pots, covered with soil and cultivated in a greenhouse under controlled growth conditions. 2 to 3 weeks after sowing, the test plants are treated at the one-leaf stage. The compounds of the invention, formulated in the form of wettable powders (WP) or as emulsion concentrates (EC), are then sprayed onto the green parts of the plants as aqueous suspension or emulsion with addition of 0.5% additive at a water application rate of 600 l/ha (converted). After the test plants had been kept in the greenhouse under optimum growth conditions for about 3 weeks, the activity of the preparations is rated visually in comparison to untreated controls. For example, 100% activity=the plants have died, 0% activity=like control plants.

Veronica persica [1] = assay: Post-emergence herbicidal activity against VERPE; settings: Veronica persica, 504 h, dosage 320 g/ha
Description: as §1, with “STEME: Stellaria media VERPE: Veronica persica” for “POLCO: Polygonum convolvulus SETVI: Setaria viridis”

Abutilon theophrasti [2] = assay: Pre-emergence herbicidal activity against ABUTH; settings: dosage 80 g/ha
Excerpt: (§2) 1. Pre-Emergence Herbicidal Action and Crop Plant Compatibility Seeds of monocotyledonous and dicotyledonous weed plants and crop plants are placed in plastic or wood fiber pots and covered with soil. The compounds of the invention, formulated in the form of wettable powders (WP) or as emulsion concentrates (EC), are then applied onto the surface of the covering soil as aqueous suspension or emulsion with addition of 0.5% additive at a water application rate of 600 l/ha (converted). After the treatment, the pots are placed in a greenhouse and kept under good growth conditions for the trial plants. After about 3 weeks, the effect of the preparations is scored visually in comparison with untreated controls as percentages. For example, 100% activity=the plants have died, 0% activity=like control plants. ABUTH: Abutilon theophrasti ALOMY: Alopecurus myosuroides

Pharbitis purpurea = assay: Post-emergence herbicidal activity against PHBPU; settings: Ipomoea purpurea, 504 h, dosage 320 g/ha, rated about 3 weeks after treatment
Description: as §1, with “LOLRI: Lolium rigidum PHBPU: Pharbitis purpurea” for “POLCO: Polygonum convolvulus SETVI: Setaria viridis”

[3] = Post-emergence treatment, summary over harmful plants; settings: 504 h, application rate of 0.32 kg of active substance or less per hectare, read-out: herbicidal action, post-emergence treatment (very good herbicidal activity)
Description: 2. Post-Emergence Herbicidal Action and Crop Plant Compatibility
as §1, with “Seeds” for “POLCO: Polygonum convolvulus SETVI: Setaria viridis 2. Post-Emergence Herbicidal Action and Crop Plant Compatibility Seeds”
As shown by the results, compounds according to the invention such as, for example, the compounds No. I-35 and other compounds from the tables (for example I-28, I-38, I-01, I-19, I-36, I-29, I-32, I-11, I-12, I-37, I-06, I-09, I-33, I-34, I-13, I-04, I-26, I-21, I-30, I-05, I-03, I-20, I-27, I-14, I-10, I-23, I-07, I-25, I-02, I-08, I-24, I-41, I-42, I-43, I-44, I-46, I-49, I-54, I-55, I-56) have, when used for post-emergence treatment, very good herbicidal activity (80% to 100% herbicidal action) against harmful plants such as Abutilon theophrasti, Alopecurus myosuroides, Amaranthus retroflexus, Avena fatua, Echinochloa crus-galli, Hordeum murinum, Lolium rigidum, Pharbitis purpurea, Polygonum convolvulus, Setaria viridis, Stellaria media, Veronica persica and Viola tricolor at an application rate of 0.32 kg of active substance or less per hectare.

Viola tricolor = assay: Post-emergence herbicidal activity against VIOTR; settings: Viola tricolor, 504 h, dosage 320 g/ha, rated about 3 weeks after treatment
Description: as §1, with “VIOTR: Viola tricolor” for “POLCO: Polygonum convolvulus SETVI: Setaria viridis”

Echinochloa crus-galli = assay: Post-emergence herbicidal activity against ECHCG; settings: Echinochloa crus-galli, 504 h, dosage 320 g/ha, rated about 3 weeks after treatment
Description: as §1, with “ECHCG: Echinochloa crus-galli HORMU: Hordeum murinum” for “POLCO: Polygonum convolvulus SETVI: Setaria viridis”

Alopecurus myosuroides = assay: Post-emergence herbicidal activity against ALOMY; settings: Alopecurus myosuroides, 504 h, dosage 320 g/ha, rated about 3 weeks after treatment
Description: as §1, with “ABUTH: Abutilon theophrasti ALOMY: Alopecurus myosuroides” for “POLCO: Polygonum convolvulus SETVI: Setaria viridis”

Polygonum convolvulus = assay: Post-emergence herbicidal activity against POLCO; settings: Fallopia convolvulus, 504 h, dosage 320 g/ha, rated about 3 weeks after treatment
Description: as §1

Avena fatua = assay: Post-emergence herbicidal activity against AVEFA; settings: Avena fatua, 504 h, dosage 320 g/ha, rated about 3 weeks after treatment
Description: as §1, with “AMARE: Amaranthus retroflexus AVEFA: Avena fatua” for “POLCO: Polygonum convolvulus SETVI: Setaria viridis”

Lolium rigidum = assay: Post-emergence herbicidal activity against LOLRI; settings: Lolium rigidum, 504 h, dosage 320 g/ha, rated about 3 weeks after treatment
Description: as §1, with “LOLRI: Lolium rigidum PHBPU: Pharbitis purpurea” for “POLCO: Polygonum convolvulus SETVI: Setaria viridis”

Veronica persica [4] = assay: Pre-emergence herbicidal activity against VERPE; settings: Veronica persica, 504 h, dosage 80 g/ha
Excerpt: as §2, with “STEME: Stellaria media VERPE: Veronica persica” for “ABUTH: Abutilon theophrasti ALOMY: Alopecurus myosuroides”

Hordeum murinum = assay: Post-emergence herbicidal activity against HORMU; settings: Hordeum murinum, 504 h, dosage 320 g/ha
Description: as §1, with “ECHCG: Echinochloa crus-galli HORMU: Hordeum murinum” for “POLCO: Polygonum convolvulus SETVI: Setaria viridis”

Amaranthus retroflexus = assay: Pre-emergence herbicidal activity against AMARE; settings: Amaranthus retroflexus, 504 h, dosage 80 g/ha
Excerpt: as §2, with “AMARE: Amaranthus retroflexus AVEFA: Avena fatua” for “ABUTH: Abutilon theophrasti ALOMY: Alopecurus myosuroides”

Stellaria media [5] = assay: Post-emergence herbicidal activity against STEME; settings: Stellaria media, 504 h, dosage 320 g/ha, rated about 3 weeks after treatment
Description: as §1, with “STEME: Stellaria media VERPE: Veronica persica” for “POLCO: Polygonum convolvulus SETVI: Setaria viridis”

Abutilon theophrasti [6] = assay: Post-emergence herbicidal activity against ABUTH; settings: Abutilon theophrasti, 504 h, dosage 320 g/ha, rated about 3 weeks after treatment
Description: as §1, with “ABUTH: Abutilon theophrasti ALOMY: Alopecurus myosuroides” for “POLCO: Polygonum convolvulus SETVI: Setaria viridis”

Stellaria media [7] = assay: Pre-emergence herbicidal activity against STEME; settings: Stellaria media, 504 h, dosage 80 g/ha
Excerpt: as §2, with “STEME: Stellaria media VERPE: Veronica persica” for “ABUTH: Abutilon theophrasti ALOMY: Alopecurus myosuroides”

Row | SMILES | pest or weed control at 320 g/ha (Setaria viridis) [%] | pest or weed control at 320 g/ha (Veronica persica [1]) [%] | Pre-emergence herbicidal activity against ABUTH in % (Abutilon theophrasti [2]) [%] | pest or weed control at 320 g/ha (Pharbitis purpurea) [%] | pest or weed control at 320 g/ha [3] [%] | pest or weed control at 320 g/ha (Viola tricolor) [%] | pest or weed control at 320 g/ha (Echinochloa crus-galli) [%] | pest or weed control at 320 g/ha (Alopecurus myosuroides) [%] | pest or weed control at 320 g/ha (Polygonum convolvulus) [%] | pest or weed control at 320 g/ha (Avena fatua) [%] | pest or weed control at 320 g/ha (Lolium rigidum) [%] | pest or weed control at 80 g/ha (Veronica persica [4]) [%] | pest or weed control at 320 g/ha (Hordeum murinum) [%] | pest or weed control at 80 g/ha (Amaranthus retroflexus) [%] | pest or weed control at 320 g/ha (Stellaria media [5]) [%] | pest or weed control at 320 g/ha (Abutilon theophrasti [6]) [%] | pest or weed control at 80 g/ha (Stellaria media [7]) [%]
1 | COC(=O)[C@H]1C[C@@H](NC(=O)C2(OC)CC(c3cc(Cl)cc(Cl)c3)=NO2)CO1 (relative stereo) [I-02, methyl cis-4-[[3-(3,5-dichlorophenyl)-5-methoxy-4H-isoxazole-5-carbonyl]amino]tetrahydrofuran-2-carboxylate] | 80 | 80 | 100 | 90 | 80 to 100 | 80 | 90 | 80 | 90 |  |  |  |  |  |  |  | 
2 | CCOC(=O)C1=C(NC(=O)C2(C)CC(c3cc(F)cc(F)c3)=NO2)COC1 (stereo not shown) [I-24, ethyl 4-[[3-(3,5-difluorophenyl)-5-methyl-4H-isoxazole-5-carbonyl]amino]-2,5-dihydrofuran-3-carboxylate] |  |  |  | 80 | 80 to 100 |  |  | 90 | 90 | 90 | 90 | 100 | 90 | 80 |  |  | 
3 | COC(=O)C1=C(NC(=O)C2(C)CC(c3cc(F)cc(F)c3)=NO2)COC1 (stereo not shown) [I-25, methyl 4-[[3-(3,5-difluorophenyl)-5-methyl-4H-isoxazole-5-carbonyl]amino]-2,5-dihydrofuran-3-carboxylate] |  | 80 |  | 80 | 80 to 100 |  |  | 100 | 90 | 100 |  | 100 |  |  | 90 | 80 | 100
